Experimental data published in ChEMBL document CHEMBL3046172, “Synthesis and Insecticidal Activity of New 2- and 6-Substituted 4-Acetoxyquinolines” (1997).

What was measured:
Type in all cases: functional
Bombyx mori [1] = experiment: Insecticidal activity against Bombyx mori Syogetsu x Syunrei third-instar larvae assessed as insect mortality upon topical application at 1 ug measured 48 hr post compound treatment
Bombyx mori [2] = experiment: Insecticidal activity against Bombyx mori Syogetsu x Syunrei third-instar larvae assessed as insect mortality upon topical application at 0.3 ug measured 48 hr post compound treatment
Bombyx mori [3] = experiment: Insecticidal activity against Bombyx mori Syogetsu x Syunrei third-instar larvae assessed as insect mortality upon topical application at 3 ug measured 48 hr post compound treatment
Bombyx mori [4] = experiment: Insecticidal activity against Bombyx mori Syogetsu x Syunrei third-instar larvae assessed as insect mortality upon topical application at 10 ug measured 48 hr post compound treatment
Plutella xylostella [5] = experiment: Insecticidal activity against Plutella xylostella (diamondback moth) third-instar larvae reared on cabbage plants leaves pre-treated with 500 ppm compound assessed as insect mortality measured 2 days post compound treatment
Spodoptera litura [6] = experiment: Insecticidal activity against Spodoptera litura third-instar larvae reared on artificial diets of Insecta LF assessed as insect mortality at 500 ppm measured 2 days post compound treatment; conditions: 48 h
Plutella xylostella [7] = experiment: Insecticidal activity against Plutella xylostella (diamondback moth) third-instar larvae reared on cabbage plants leaves pre-treated with 1000 ppm compound assessed as insect mortality measured 2 days post compound treatment
Plutella xylostella [8] = experiment: Insecticidal activity against Plutella xylostella (diamondback moth) third-instar larvae reared on cabbage plants leaves pre-treated with 250 ppm compound assessed as insect mortality measured 2 days post compound treatment
Spodoptera litura [9] = experiment: Insecticidal activity against Spodoptera litura third-instar larvae reared on artificial diets of Insecta LF assessed as insect mortality at 125 ppm measured 2 days post compound treatment; conditions: 48 h
Spodoptera litura [10] = experiment: Insecticidal activity against Spodoptera litura third-instar larvae reared on artificial diets of Insecta LF assessed as insect mortality at 250 ppm measured 2 days post compound treatment; conditions: 48 h
Bombyx mori [11] = experiment: Insecticidal activity against Bombyx mori Gunpo x Shugyoku third-instar larvae assessed as insect mortality upon topical application at 10 ug measured 48 hr post compound treatment

SMILES | mortality (Bombyx mori [1]) | mortality (Bombyx mori [2]) | mortality (Bombyx mori [3]) | mortality (Bombyx mori [4]) | other results
CCCCCCC/C=C/c1nc2ccccc2c(OC(C)=O)c1C | 76% | 70% | 100% | – | –
CCCCCCCCCc1nc2ccccc2c(OC(C)=O)c1C | 15% | – | 100% | 100% | –
CCCCCCCc1nc2ccccc2c(OC(C)=O)c1C | 10% | 0% | 100% | 100% | –
CCCCCCc1nc2ccccc2c(OC(C)=O)c1C | 10% | – | 100% | 100% | –
CCCCCc1nc2ccccc2c(OC(C)=O)c1C | 0% | – | 40% | 100% | –
CCCCc1nc2ccccc2c(OC(C)=O)c1C | – | – | 35% | 95% | –
CCCc1nc2ccccc2c(OC(C)=O)c1C | – | – | 0% | 0% | –
CCc1nc2ccccc2c(OC(C)=O)c1C | 95% | 0% | 100% | – | –
CC(=O)Oc1c(C)c(C)nc2ccccc12 | 0% | – | 71% | 100% | –
CCCCCCCCCc1nc2ccc(F)cc2c(OC(C)=O)c1C | – | – | – | 10% | –
CCCCCCc1nc2ccc(F)cc2c(OC(C)=O)c1C | 0% | – | 60% | 75% | –
CCc1nc2ccc(F)cc2c(OC(C)=O)c1C | 100% | 70% | – | – | mortality at 500 ppm (Plutella xylostella [5]): 70%; mortality at 500 ppm (Spodoptera litura [6]): 100%; mortality at 1000 ppm (Plutella xylostella [7]): 97.5%; mortality at 250 ppm (Plutella xylostella [8]): 42.5%; mortality at 125 ppm (Spodoptera litura [9]): 55%; mortality at 250 ppm (Spodoptera litura [10]): 90%
CC(=O)Oc1c(C)c(C)nc2ccc(F)cc12 | 95% | 0% | 100% | – | –
C=Cc1nc2ccccc2c(OC(C)=O)c1C | – | – | – | – | mortality (Bombyx mori [11]): 0%
C/C=C/c1nc2ccccc2c(OC(C)=O)c1C | – | – | – | 0% | –
CCCCCCC/C=C/c1nc2ccc(F)cc2c(OC(C)=O)c1C | – | – | – | 0% | –
CCCCCCC/C=C\c1nc2ccc(F)cc2c(OC(C)=O)c1C | 10% | 0% | 100% | 100% | –
